One may read the IC50 as the point on the concentration scale where inhibition reaches its midpoint. As a reminder, the Km is the concentration of substrate that gives half-maximal velocity. As usually defined, the Solubility is how much of the substance goes into solution per volume. A low value points to a poorly soluble substance.

Data set [1] concerns CL1-5 human lung adenocarcinoma cells. The experiment in a line: In vitro cytotoxicity (3H-thymidine incorporation), CL1-5. The class given is cell-based. As for the experimental part:
CL1-5 cells were exposed to the indicated concentrations of drugs with or without the addition of human serum albumin to 40 mg/ml. […] Bars show the SD.
(§1) The cancer cell lines were from ATCC except for CL1-5 human lung adenocarcinoma which was generous gift from Dr. PC Yang and EJ human bladder carcinoma cells. See Yang, P. C. et al., Characterization of the mucin differentiation in human lung adenocarcinoma cell lines. American journal of respiratory cell and molecular biology 1992, 7, 161-171; Marshall, C. J. et al., Markers of neoplastic transformation in epithelial cell lines derived from human carcinomas. J Natl Cancer Inst 1977, 58, 1743-51.
(§2) 5000-10000 cells/well in 96 well plate were exposed to graded concentration of the compounds for 48 h in the absence or presence of 40 mg/ml HSA. E. coli β-glucuronidase (1 μg/well) was added with BCC-G in some experiments. The cells were washed twice with PBS and incubated in fresh medium for 24 h before the cells were pulsed with 1 μC/well of ^3H-thimidine for 16 h. Cellular radioactivity in harvested cells was counted on a Topcount scintillation counter and IC50 values were calculated by fitting the data to a sigmoidal dose/response equation.

The next data set deals with T1, human β-glucuronidase (Homo sapiens, UniProt P08236).
T1 sequence (P08236 23-651): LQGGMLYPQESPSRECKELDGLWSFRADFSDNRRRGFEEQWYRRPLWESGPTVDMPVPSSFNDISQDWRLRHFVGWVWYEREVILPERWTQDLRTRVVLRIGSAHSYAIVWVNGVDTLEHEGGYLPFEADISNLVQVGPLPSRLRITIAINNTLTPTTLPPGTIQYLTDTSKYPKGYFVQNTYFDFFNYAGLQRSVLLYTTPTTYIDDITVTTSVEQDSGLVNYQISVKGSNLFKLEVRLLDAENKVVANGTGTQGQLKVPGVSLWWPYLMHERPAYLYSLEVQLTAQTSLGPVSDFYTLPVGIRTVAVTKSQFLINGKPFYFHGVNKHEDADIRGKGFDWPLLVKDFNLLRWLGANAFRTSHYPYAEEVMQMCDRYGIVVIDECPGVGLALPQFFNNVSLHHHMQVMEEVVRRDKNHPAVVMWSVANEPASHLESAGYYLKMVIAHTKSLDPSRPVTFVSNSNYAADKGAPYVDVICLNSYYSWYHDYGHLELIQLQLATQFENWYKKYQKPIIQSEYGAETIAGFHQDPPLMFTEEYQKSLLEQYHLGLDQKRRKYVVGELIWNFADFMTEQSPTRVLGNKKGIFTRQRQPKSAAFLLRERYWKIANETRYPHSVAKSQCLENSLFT
The experiment in a line: Hydrolysis of BQC-G by human β-glucuronidase. Type of data set: biochemical. Particulars: low concentrations of human β-glucuronidase. The text has this:
Hydrolysis of BQC-G by β-glucuronidase

For another data set, the target named is E. coli β-glucuronidase (Escherichia coli, UniProt P05804). Particulars: for Kcat / Km: enzymatic hydrolysis by E. coli β-glucuronidase.
The nature of data set [2]: Stability in blood (human plasma/serum, 37° C., 24 h). The conditions noted are these: 24 h at 37° C. The class given is in vitro ADME. Here is the method: Normal human plasma was spiked with BQC-G to 5 μM. The mixture was incubated 24 h at 37° C. during which time samples were periodically removed and analyzed by SPE-HPLC.
A further data set can be described thus: Water solubility. The class given is physicochemical. Here is the method:
[…] Mixtures were centrifuged for 40 min at 20,000 g at room temperature. A sample from the water layer was analyzed by HPLC and quantified using standard curves generated with pure BQC and BQC-G.

Data set [3] has as its system EJ human bladder carcinoma cells. The experiment in a line: In vitro cytotoxicity (3H-thymidine incorporation), EJ. Type of data set: cell-based.
Excerpt: as §1, §2
(Incorporation of labelled thymidine or its analogues reports DNA synthesis.)

For a further data set, the system named is CaSki. The experiment in a line: In vitro cytotoxicity (3H-thymidine incorporation), CaSki. The class given is cell-based. As for the experimental part: as §2
Data set [4] is described as follows: Octanol/water partition coefficient. The class given is physicochemical. The conditions noted are these: for Po/w (octanol/water partition coefficient): Buffer pH 4.5. Here is the method:
Octanol/Water Partition Coefficient
[…] One μg of either BQC or BQC-G was added to a mixture of 250 μl octanol and 250 μl of one of the three water based pre-equilibrated solvents. After mixing for 24 h at RT, the samples were centrifuged 20 min at 10,000×g. Samples of the octanol and water layers were analyzed by HPLC.

A further data set concerns LS174T. The experiment in a line: In vitro cytotoxicity (3H-thymidine incorporation), LS174T. The class given is cell-based. Here is the method: as §2
A further data set relates to other cancer cell lines. The experiment in a line: In vitro cytotoxicity, other cancer cell lines. Type of data set: cell-based. As for the experimental part: as §2
The mark [5] stands for this setting: Homo sapiens, CL1-5, CL1-5, +HSA (40 mg/ml).
The mark [6] stands for this setting: Homo sapiens, CL1-5, CL1-5, −HSA.

≈ marks a conversion by molar mass, not a printed value. Where “and” joins values, the source holds several entries; their conditions need not be identical. Equal values may be shown once. Read-outs that look alike come from different tables or passages of the source.

E. coli β-glucuronidase, sequence (P05804 whole entry): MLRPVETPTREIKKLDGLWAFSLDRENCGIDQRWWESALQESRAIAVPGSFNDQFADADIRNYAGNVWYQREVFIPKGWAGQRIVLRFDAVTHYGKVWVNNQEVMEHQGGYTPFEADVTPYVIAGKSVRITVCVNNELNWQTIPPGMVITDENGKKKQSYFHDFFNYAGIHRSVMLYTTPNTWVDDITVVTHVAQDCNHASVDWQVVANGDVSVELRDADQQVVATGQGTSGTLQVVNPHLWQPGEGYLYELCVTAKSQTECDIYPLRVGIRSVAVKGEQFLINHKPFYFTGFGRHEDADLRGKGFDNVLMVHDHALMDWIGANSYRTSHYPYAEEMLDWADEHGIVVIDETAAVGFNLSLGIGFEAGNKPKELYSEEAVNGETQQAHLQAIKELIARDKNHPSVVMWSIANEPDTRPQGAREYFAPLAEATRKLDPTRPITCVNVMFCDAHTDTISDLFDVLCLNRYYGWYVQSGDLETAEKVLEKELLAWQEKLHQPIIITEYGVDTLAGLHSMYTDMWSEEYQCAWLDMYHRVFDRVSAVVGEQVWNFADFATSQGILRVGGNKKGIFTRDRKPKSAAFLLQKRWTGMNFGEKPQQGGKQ

Consider `CC[C@@]1(O)C(=O)OCc2c1cc1n(c2=O)Cc2cc3c(N)cccc3nc2-1` [9AC, 9-amino-camptothecin], for which, in data set [1], the “Cytotoxicity Ratio (IC50 in the presence of HSA to IC50 without HSA)” value is on record as 140 and the “effect of HSA on cytotoxicity” value was “profound decrease in cytotoxicity”. This compound gave an IC50 in [1] (CL1-5, +HSA (40 mg/ml)) of 1370 ± 70 nM. The same compound showed an IC50 in [1] (CL1-5, −HSA) of 9.8 ± 0.3 nM.
As to `CC[C@@]1(O)C(=O)OCc2c1cc1n(c2=O)Cc2c-1nc1ccc(OCc3ccc(O[C@@H]4O[C@H](C(=O)O)[C@@H](O)[C@H](O)[C@H]4O)c([N+](=O)[O-])c3)c3c1c2CCC3` [BQC-G], the “hydrolysis to the parental aglycone BQC” value at human β-glucuronidase and at E. coli β-glucuronidase (low concentrations of E. coli β-glucuronidase) was “completely hydrolyzed” each time. The compound further gave a Kcat at E. coli β-glucuronidase of 45.1 s⁻¹. For the same compound, the Km on E. coli β-glucuronidase was 4.6 µM. The “stability in human serum” value in data set [2] was “only trace amounts of BQC detected”. The Solubility in the data set “Water solubility” (Buffer pH 7.0) amounted to 775 µg/mL (≈ 1060 µM). Further, the “solubility in water based buffers” value in “Water solubility” (pH 7.0) turned out to be 775 µg/mL (≈ 1060 µM). The “solubility in water based buffers relative to BQC” value in the data set “Water solubility” (versus BQC) is “about 4000 fold”. Also, the IC50 is 44.8 ± 0.7 nM in data set [3]; 31.2 ± 0.5 nM in the data set with CaSki; 1080 nM in data set [1] (CL1-5, +HSA (40 mg/ml)); 13 nM in data set [1] (CL1-5, in the presence of HSA, hydrolyzed by β-glucuronidase); 1.3 nM in data set [1] (CL1-5, without HSA, β-glucuronidase added); 58 nM and 58.7 nM in [1] (CL1-5, −HSA). Moreover, in the data set on LS174T, inhibition was half-maximal at 24.6 ± 2.8 nM (IC50). Further, in data set [1] (CL1-5), the “Cytotoxicity Ratio (IC50 in the presence of HSA to IC50 without HSA)” value turned out to be 18.4. In addition, in [4], the “Po/w (octanol/water partition coefficient)” value was −0.44. For the same compound, the Po/w in [4] (Buffer pH 7.4) is listed as −1.01; in data set [4] (water), −0.44. The octanol/water partition coefficient entry in data set [4] (pH not stated (discussion)) is recorded as “about −1”.
With `O=C(O)[C@H]1O[C@@H](Oc2ccc([N+](=O)[O-])cc2)[C@H](O)[C@@H](O)[C@@H]1O` [PNPG, p-nitrophenol β-D-glucuronide], on E. coli β-glucuronidase, the Kcat was found to be 173 s⁻¹ and the Km was 490 ± 84 µM.
As to `CC[C@@]1(O)C(=O)OCc2c1cc1n(c2=O)Cc2cc3c(CN(C)C)c(O)ccc3nc2-1` [topotecan], the 50% inhibitory concentration (IC50) stood at 28.4 ± 0.7 nM in data set [1] (setting [5]) and 27.8 ± 0.3 nM in data set [1] (setting [6]).
For `Cc1cc(=O)oc2cc(O[C@@H]3O[C@H](C(=O)O)[C@@H](O)[C@H](O)[C@H]3O)ccc12` [4-MUG, 4-methylumbelliferyl-β-D-glucuronide], on E. coli β-glucuronidase, the Kcat stood at 22.2 s⁻¹ and the Michaelis-Menten constant (Km) worked out at 80.2 ± 12.4 µM.
Turning to `CC[C@@]1(O)C(=O)OCc2c1cc1n(c2=O)Cc2cc3c(NC(=O)OCc4ccc(O[C@@H]5O[C@H](C(=O)O)[C@@H](O)[C@H](O)[C@H]5O)cc4)cccc3nc2-1` [9ACG, 9-amino-camptothecin-glucuronide], at E. coli β-glucuronidase, the Kcat was determined as 8.6 s⁻¹ and the Michaelis-Menten constant (Km) was 30 µM. For the same compound, the “Cytotoxicity Ratio (IC50 in the presence of HSA to IC50 without HSA)” value in data set [1] is recorded as more than 15. In data set [1] (CL1-5, +HSA (40 mg/ml)), this compound had a half-inhibitory concentration (IC50) of more than 10000 nM. In addition, the IC50 in [1] (CL1-5, −HSA) worked out at 650 ± 40 nM.
As for `CCc1c2c(nc3ccc(O)cc13)-c1cc3c(c(=O)n1C2)COC(=O)[C@]3(O)CC` [SN-38], the “Cytotoxicity Ratio (IC50 in the presence of HSA to IC50 without HSA)” value in data set [1] stood at 9.1. Also, the IC50 stood at 47.9 ± 1.9 nM in data set [1] (CL1-5, +HSA (40 mg/ml)) and 5.25 ± 0.08 nM in data set [1] (CL1-5, −HSA).
On to `CC[C@@]1(O)C(=O)OCc2c1cc1n(c2=O)Cc2cc3ccccc3nc2-1` [CPT, camptothecin], for which the IC50 in [3] (Homo sapiens) is 21 ± 3.9 nM; in the data set with CaSki (Homo sapiens, Ca-Ski), 20 ± 2.1 nM; in data set [1] (setting [5]), more than 3000 nM; in [1] (setting [6]), 20.5 ± 1.3 nM; in the data set on LS174T (Homo sapiens) it was 9.7 ± 0.8 nM. Further, the “Cytotoxicity Ratio (IC50 in the presence of HSA to IC50 without HSA)” value in [1] (CL1-5) is reported as more than 146. The “effect of HSA on cytotoxicity” value in data set [1] (CL1-5, in the presence of HSA) is recorded as “drastically reduced”.
Regarding `CC[C@@]1(O)C(=O)OCc2c1cc1n(c2=O)Cc2c-1nc1ccc(O)c3c1c2CCC3` [BQC, 5,6-dihydro-4H-benzo[de]quinoline-camptothecin], the Solubility in the data set “Water solubility” (Buffer pH 4.5) is 0.120 µg/mL (≈ 0.297 µM); in “Water solubility” (Buffer pH 7.0), 0.200 µg/mL (≈ 0.495 µM); in the data set “Water solubility” (water), 0.200 µg/mL (≈ 0.495 µM). Besides, the “solubility in water-based buffers” value in the data set “Water solubility” (pH 4.5) came out at 125 ng/mL (≈ 0.309 µM); in the data set “Water solubility” (pH 7.0) it was 200 ng/mL (≈ 0.495 µM). Further, the half-inhibitory concentration (IC50) in the data set with other cancer cell lines is 1 to 2 nM; in [3], 1.78 ± 0.08 nM; in the data set on CaSki, 1.25 ± 0.05 nM; in data set [1] (CL1-5, +HSA (40 mg/ml)), 13 nM; in data set [1] (CL1-5, −HSA), 1.4 nM and 1.37 nM; with LS174T it was 1.31 ± 0.03 nM. In data set [1] (CL1-5), the “Cytotoxicity Ratio (IC50 in the presence of HSA to IC50 without HSA)” value worked out at 9.5. In addition, the “Po/w (octanol/water partition coefficient)” value in data set [4] was found to be 1.67. Also, the Po/w in [4] (Buffer pH 7.4) is given as 1.46; in data set [4] (water) it was 1.98.
